Entries after “also recorded” stand apart in the source; their conditions may differ. Structures can show the parent of a compound that is named as a salt.
Assays:
male Sprague-Dawley rats = experiment: Forced swim test (FST): latency to become immobile and behavioral sampling; assay type: in vivo, rat; details: re-test (day 2), DMI 10 mg/kg, FLX 20 mg/kg; for latency to become immobile: 3 IP injections, CIT 5.0 mg/kg; for occurrences of climbing (behavioral sampling) / occurrences of swimming (behavioral sampling) / occurrences of immobility (behavioral sampling): CIT 5.0 mg/kg IP
Protocol: The behavioral effects of the combination of uridine and omega-3 fatty acids were also evaluated in rats using the forced swim test (FST). This assay identifies in rodents treatments that have antidepressant effects in humans (Porsolt et al. Nature 266:730-732 1977; Carlezon et al. Biol. Psychiatry 51:882-889, 2002). Uridine was administered using systemic injection while omega-3 fatty acids were administered by supplementation within the diet for various periods of time (3, 10, or 30 days). The effects of uridine in rats maintained on the omega-3 fatty acid-enriched diet were also evaluated to determine if these effects were additive. […] The efficacy of each treatment in the FST was evaluated using two separate scoring methods: latency to become immobile, a simple and rapid method that identifies agents with antidepressant effects ([…] et al. J Neurosci 21:7397-7403 2001), and behavioral sampling, a more complex method that differentiates antidepressant drugs according to their pharmacological mechanisms (Detke et al. Psychopharmacology 121:66-72 1995). Finally, treatments with antidepressant-like effects in the FST were evaluated for non-specific effects on activity in an open field, which might complicate interpretation of the data from the swimming studies. Rats: A total of 197 male Sprague-Dawley rats (Charles River Laboratories, Boston Mass.) were used in these studies. The rats were housed in groups of four and weighed 325-375 gm at the time of behavioral testing. Rats were maintained on a 12 h light (0700-1900 h)-12 h dark cycle with free access to food and water except during testing. Experiments were conducted in accordance with the 1996 Guide for the Care and Use of Laboratory Animals (NIH) and McLean Hospital policies. Drugs: Dosages of desipramine HCl (DMI), fluoxetine HCl (FLX), citalopram HBr (CIT), and uridine (URI) were administered in a distilled water vehicle (VEH) at a volume of 1 cc/kg. All drugs were purchased from RBI-Sigma (St. Louis, Mo.) except CIT, which was a gift of Forest Laboratories (New York, N.Y.). […] The diets were equivalent in overall fat, protein, carbohydrate, and caloric content. Forced Swim Test (FST): One hundred-sixty seven rats were used in the FST studies, which were conducted as described previously (Carlezon et al. Biol. Psychiatry 51:882-889, 2002) with minor modifications. The FST is a two-day procedure in which rats swim under conditions in which escape is not possible. On the first day, rats are placed in clear, 65 cm tall-25 cm diameter cylinders filled to 48 cm with 25° C. water. The rats initially struggle to escape from the water, but eventually they adopt a posture of immobility in which they make only the movements necessary to keep their heads above water. After 15 min of forced swimming, the rats are removed from the water, dried with towels, and placed in a warmed enclosure for 30 min. The cylinders are emptied and cleaned between rats. When the rats are re-tested 24 hours later under identical conditions in 5 min sessions, immobility is increased. Treatment with standard antidepressant drugs within the 24 hr period between the first exposure to forced swimming and re-testing can attenuate facilitated immobility, an effect correlated with antidepressant efficacy in humans (Porsolt et al. Nature 266:730-732 1977; Detke et al. Psychopharmacology 121:66-72 1995, Carlezon et al. Biol. Psychiatry 51:882-889, 2002). Rats tested with DMI, FLX, CIT, or URI received 3 separate intraperitoneal (IP) injections of drug (or VEH), at 1 hr, 19 hr, and 23 hr after the first exposure to forced swimming. This commonly used regimen is sensitive to the antidepressant-like effects of many standard agents (Porsolt et al. Nature 266:730-732 1977; Detke et al. Psychopharmacology 121:66-72 1995; Carlezon et al. Biol. Psychiatry 51:882-889, 2002). […] There were 7-12 rats per treatment condition, and separate rats were used for each treatment regimen. […]

depressed subjects = experiment: 17-item Hamilton Depression Rating Scale (HDRS), eight weeks of treatment; assay type: in vivo, human
Protocol: In a second study, twelve depressed subjects (mean age 40) received 500 mg of an oral formulation of CDP-choline twice daily for eight weeks.

children with ADHD [1] = experiment: Computerized continuous performance task (CPT), measure of attention; assay type: in vivo, human
Protocol: A new fMRI procedure (T2 relaxometry or “T2-RT”) was developed to indirectly assess blood volume in the striatum (caudate and putamen) of boys 6-12 years of age under steady-state conditions. Six healthy control boys (10.2±1.5 yr) and eleven boys diagnosed with ADHD (9.3±1.6 yr) served as subjects in the study to examine fMRI differences between unmedicated healthy controls and ADHD children on either placebo or the highest dose of methylphenidate. […] Activity and attention were evaluated in unmedicated healthy controls using the same procedure as children with ADHD, and fMRI followed within the same time frame.
(§1) Highly accurate laboratory-based measures of activity and attention were obtained by having the children perform a computerized vigilance test while an infrared motion analysis system captured and recorded movements (see Methods). […]
Assessment of Activity and Attention. […] In brief, children sat in front of a computer and were evaluated using a simple GO/NO−GO CPT in which the subject responds to visual presentation of a target and withholds response to a non-target stimuli that appear in the center of the screen at a fixed 2 second […] interval (Greenberg et al., Psychopharmacol. Bull. 23: 279-282, 1987). […]
Statistical Analyses. Differences between groups was assessed using ANCOVA with age as a covariate. […]

children with ADHD [2] = experiment: Infrared motion analysis of activity during the attention test; assay type: in vivo, human
Text: A new fMRI procedure (T2 relaxometry or “T2-RT”) was developed to indirectly assess blood volume in the striatum (caudate and putamen) of boys 6-12 years of age under steady-state conditions. Six healthy control boys (10.2±1.5 yr) and eleven boys diagnosed with ADHD (9.3±1.6 yr) served as subjects in the study to examine fMRI differences between unmedicated healthy controls and ADHD children on either placebo or the highest dose of methylphenidate. The healthy controls were screened using structured diagnostic interview (K-SADS-E; Orvaschel, H. & Puig-Antich, J., The schedule for affective disorders and schizophrenia for school-age children-epidemiologic version (Kiddie-SADS-E), University of Pittsburgh, Pittsburgh, Pa., 1987), were free of any major psychiatric disorder, and had no more than 3 out of 9 possible symptoms of inattention or hyperactivity-impulsivity by DSM-IV criteria. Children with ADHD were included if they met criteria for ADHD on structured diagnostic interview, and had at least 6 of 9 symptoms of inattention or hyperactivity-impulsivity. Children with ADHD took part in a triple blind (parent, child, rater), randomized, placebo-controlled study of effects of methylphenidate (0, 0.5, 0.8, 1.5 mg/kg in divided dose) on activity, attention, and fMRI. […] Activity and attention were evaluated in unmedicated healthy controls using the same procedure as children with ADHD, and fMRI followed within the same time frame.
as §1
Assessment of Activity and Attention. […] In brief, children sat in front of a computer and were evaluated using a simple GO/NO−GO CPT in which the subject responds to visual presentation of a target and withholds response to a non-target stimuli that appear in the center of the screen at a fixed 2 second […] interval (Greenberg et al., Psychopharmacol. Bull. 23: 279-282, 1987). […] Three 5-minute test sessions were recorded during a 30-minute test period while an infrared motion analysis system (Qualisys, Glastonbury, Conn.) recorded the movement of small reflective markers attached to the head, shoulder, elbow, and back of the child. […] Results were analyzed using the concept of “micro-events.” A new micro-event begins when the marker moves 1.0 millimeters or more from its most recent resting location, and is defined by its position and duration. The spatial scaling exponent is a measure of the spatial complexity of the movement path, and is calculated from the logarithmic rate of information decay at progressively lower levels of resolution. […]

[3] = test system: putamen, caudate and thalamus of children with ADHD; experiment: T2 relaxometry fMRI (T2-RT), indirect measure of regional blood volume; assay type: in vivo, human; details: ongoing treatment
Text: A new fMRI procedure (T2 relaxometry or “T2-RT”) was developed to indirectly assess blood volume in the striatum (caudate and putamen) of boys 6-12 years of age under steady-state conditions. Six healthy control boys (10.2±1.5 yr) and eleven boys diagnosed with ADHD (9.3±1.6 yr) served as subjects in the study to examine fMRI differences between unmedicated healthy controls and ADHD children on either placebo or the highest dose of methylphenidate. The healthy controls were screened using structured diagnostic interview (K-SADS-E; Orvaschel, H. & Puig-Antich, J., The schedule for affective disorders and schizophrenia for school-age children-epidemiologic version (Kiddie-SADS-E), University of Pittsburgh, Pittsburgh, Pa., 1987), were free of any major psychiatric disorder, and had no more than 3 out of 9 possible symptoms of inattention or hyperactivity-impulsivity by DSM-IV criteria. Children with ADHD were included if they met criteria for ADHD on structured diagnostic interview, and had at least 6 of 9 symptoms of inattention or hyperactivity-impulsivity. Children with ADHD took part in a triple blind (parent, child, rater), randomized, placebo-controlled study of effects of methylphenidate (0, 0.5, 0.8, 1.5 mg/kg in divided dose) on activity, attention, and fMRI. Children with ADHD were treated continuously for one week with placebo or a specific dose of methylphenidate and at the end of the week were tested for drug efficacy using objective measures of attention and activity and fMRI (See Methods) within 1-3 hours of their afternoon dose. The time between dose and testing was held constant for each subject throughout the four treatment conditions. Activity and attention were evaluated in unmedicated healthy controls using the same procedure as children with ADHD, and fMRI followed within the same time frame.
T2 relaxometry, a novel fMRI procedure, was used to derive steady state blood flow measures and to test for enduring medication effects. […] T2 relaxometry, like BOLD, hinges on the paramagnetic properties of deoxyhemoglobin. […]

[4] = eight weeks, CDP-choline 500 mg twice daily, fluoxetine 20 mg/day
[5] = children with ADHD, methylphenidate vs placebo, P<0.05

CN(C)CCCC1(c2ccc(F)cc2)OCc2cc(C#N)ccc21 (stereo not shown) [CIT, citalopram HBr]
latency to become immobile (male Sprague-Dawley rats; HBr): increased latencies to become immobile
occurrences of climbing (behavioral sampling) (male Sprague-Dawley rats): without affecting climbing
occurrences of swimming (behavioral sampling) (male Sprague-Dawley rats): increased swimming
occurrences of immobility (behavioral sampling) (male Sprague-Dawley rats; HBr): reduced immobility; also recorded: decreased immobility

CNCCCN1c2ccccc2CCc2ccccc21 [DMI, desipramine HCl]
latency to become immobile (male Sprague-Dawley rats; HCl): increased latencies to become immobile
occurrences of climbing (behavioral sampling) (male Sprague-Dawley rats; HCl): increased climbing; also recorded: increases in occurrences of climbing
occurrences of immobility (behavioral sampling) (male Sprague-Dawley rats; HCl): reduced immobility; also recorded: decreases in occurrences of immobility
occurrences of swimming (behavioral sampling) (male Sprague-Dawley rats; HCl): without affecting occurrences of swimming

CNCCC(Oc1ccc(C(F)(F)F)cc1)c1ccccc1 (stereo not shown) [fluoxetine, fluoxetine HCl]
mean 17-item HDRS score with eight weeks of treatment (depressed subjects; CDP-choline 500 mg oral twice daily, fluoxetine open label 20 mg/day, p<0.0001): 11±6
mean 17-item HDRS score before treatment (depressed subjects; baseline, CDP-choline 12 subjects, fluoxetine 41 subjects): 21±4
complete responses (subjects/total) (depressed subjects; [4]): 17/41
complete responses, share of subjects (depressed subjects; [4]): 41%
latency to become immobile (male Sprague-Dawley rats; listed as FLX, HCl): increased latencies to become immobile
occurrences of climbing (behavioral sampling) (male Sprague-Dawley rats): without affecting climbing
occurrences of swimming (behavioral sampling) (male Sprague-Dawley rats): increased swimming
occurrences of immobility (behavioral sampling) (male Sprague-Dawley rats; listed as FLX, HCl): reduced immobility; also recorded: decreased immobility

COC(=O)C(c1ccccc1)C1CCCCN1 (stereo not shown) [methylphenidate]
response variability (S.D.) of response latency (children with ADHD [1]; children with ADHD on methylphenidate (placebo 242 msec), P<0.005): 149 ms
performance accuracy on the CPT (children with ADHD [1]; children with ADHD, methylphenidate vs placebo, one week of treatment, P<0.05): enhancing
increase in spatial complexity (children with ADHD [2]; 5 ADHD children not objectively hyperactive on placebo, p>0.6): < 8%
increase in spatial complexity (children with ADHD [2]; 6 subjects objectively hyperactive on placebo, P<0.02): 52.6%
complexity of the movement pattern (children with ADHD [2]; [5]): increasing
increase in time spent immobile (children with ADHD [2]; [5]): 126%
T2-RT in right caudate ([3]; P=0.08): trend-level difference
T2-RT in thalamus ([3]; P>0.7): failed to exert significant effects
T2-RT in right and left putamen ([3]; response tied to unmedicated activity state, P=0.006): significantly altered
